# From the NIST ThermoML archive (doi:10.1016/j.tca.2009.06.018)
# ± gives the expanded uncertainty stated by the source.
# Settings: Crystal; DTA
row,Normal melting temperature,SMILES
1,32.31 ± 0.5 °C,CCCCCCCCCC(=O)O [decanoic acid]
2,16.48 ± 0.5 °C,CCCCCCCC(=O)O [octanoic acid]
3,70.83 ± 0.5 °C,CCCCCCCCCCCCCCCCCC(=O)O [octadecanoic acid]
4,44.92 ± 0.5 °C,CCCCCCCCCCCC(=O)O [dodecanoic acid]
5,55.73 ± 0.5 °C,CCCCCCCCCCCCCC(=O)O [tetradecanoic acid]
6,64.07 ± 0.5 °C,CCCCCCCCCCCCCCCC(=O)O [hexadecanoic acid]
